US8173689B2 (Novartis AG, priority 2006, dated 2012)

Legend:
[1] = target: T1, cytoplasmic domain of the human CSF-1R (Homo sapiens, UniProt P07333); assay: In vitro kinase assay for colony stimulating factor-1 receptor (AlphaScreen); type: biochemical; conditions: tested at about 1 μM; compounds of Table 3; read-out: CSF-1R percent inhibition
T1 construct: Recombinant protein corresponding to the cytoplasmic domain of the human CSF-1R; purchased Invitrogen Corporation, Carlsbad, Calif; PV3249
T1 sequence (P07333 539-972 limits assumed): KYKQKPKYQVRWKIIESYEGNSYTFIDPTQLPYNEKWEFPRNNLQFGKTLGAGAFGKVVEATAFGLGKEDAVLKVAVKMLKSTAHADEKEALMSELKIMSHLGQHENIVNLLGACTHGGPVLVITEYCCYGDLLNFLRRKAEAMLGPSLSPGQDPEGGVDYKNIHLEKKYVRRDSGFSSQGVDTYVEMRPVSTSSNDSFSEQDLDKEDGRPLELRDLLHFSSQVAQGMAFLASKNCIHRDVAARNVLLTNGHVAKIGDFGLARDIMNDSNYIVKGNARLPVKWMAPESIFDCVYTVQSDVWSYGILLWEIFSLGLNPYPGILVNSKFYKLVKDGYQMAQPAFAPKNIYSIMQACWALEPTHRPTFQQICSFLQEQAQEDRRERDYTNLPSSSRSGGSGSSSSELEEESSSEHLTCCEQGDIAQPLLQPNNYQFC
Procedure, shortened: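 4 nM enzyme, 1 μM ATP; buffer 50 mM Hepes pH 7.5, 5 mM MgCl2, 10 mM MnCl2, 1.0 mM DTT, 0.1% BSA, 0.01% Tween 80. Readout: AlphaScreen, PT66 acceptor/streptavidin donor, overnight.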

[2] = target: T2, full-length human CSF-1R receptor (Homo sapiens, UniProt P07333); assay: In vitro inhibition of CSF-1R receptor tyrosine phosphorylation in transfected HEK293H cells stimulated with MCSF; type: cell-based; conditions: HEK293-H, tested at about 1 μM; compounds of Table 3; read-out: pCSF1R percent inhibition
T2 construct: transfected with the full-length human CSF-1R receptor cloned in house; expressed in transfected cells; host or cells: HEK293H (Invitrogen Cat. #11631017)
Procedure: The lysate was then transferred to total CSF-1R antibody coated 96-well plates that had already been blocked with 3% Blocker A from Mesoscale discovery (MSD) for 2 hours and washed afterwards. Lysates were incubated overnight at 4° C. and the plates were then washed 4× with MSD Tris Wash Buffer. […] The plates were read on the Sector 6000 instrument (MSD). Raw data was imported in Abase and EC50s calculated with XL-fit data analysis software.

kinase domain of cKIT = target: T3, kinase domain of cKIT (Homo sapiens, UniProt P10721); assay: Inhibition of cKIT kinase signaling in an in vitro biochemical assay (alphascreen); conditions: tested at about 1 μM; compounds of Table 3; read-out: cKit percent inhibition
T3 construct: The kinase domain of cKIT was assayed in 50 mM Hepes; purchased Upstate 14-559

kinase domain of PDGFRβ = target: T4, kinase domain of PDGFRβ (Homo sapiens, UniProt P09619); assay: Inhibition of PDGFRb kinase signaling in an in vitro biochemical assay (alphascreen); conditions: tested at about 1 μM; compounds of Table 3; read-out: PDGFRβ percent inhibition
T4 construct: The kinase domain of PDGFRβ was assayed in 50 mM Hepes; purchased Invitrogen P3082

[3] = test system: MNFS60 (murine AML cells); assay: Cell viability assay in MCSF dependent MNFS60 cells (Cell Titer Glo); type: cell-based; conditions: Mus musculus, tested at about 1 μM; compounds of Table 3; read-out: M-NFS-60 CP percent inhibition
Procedure, shortened: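 MNFS60 cells grown with 10 ng/ml MCSF (final) were exposed for 72 hrs at 37° C., 5% CO2 to 3-fold serial compound dilutions. Viable cells were measured by Cell Titer Glo luminescence, in triplicate, and EC50s were derived by curve fitting.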

T2 sequence (P07333 20-972): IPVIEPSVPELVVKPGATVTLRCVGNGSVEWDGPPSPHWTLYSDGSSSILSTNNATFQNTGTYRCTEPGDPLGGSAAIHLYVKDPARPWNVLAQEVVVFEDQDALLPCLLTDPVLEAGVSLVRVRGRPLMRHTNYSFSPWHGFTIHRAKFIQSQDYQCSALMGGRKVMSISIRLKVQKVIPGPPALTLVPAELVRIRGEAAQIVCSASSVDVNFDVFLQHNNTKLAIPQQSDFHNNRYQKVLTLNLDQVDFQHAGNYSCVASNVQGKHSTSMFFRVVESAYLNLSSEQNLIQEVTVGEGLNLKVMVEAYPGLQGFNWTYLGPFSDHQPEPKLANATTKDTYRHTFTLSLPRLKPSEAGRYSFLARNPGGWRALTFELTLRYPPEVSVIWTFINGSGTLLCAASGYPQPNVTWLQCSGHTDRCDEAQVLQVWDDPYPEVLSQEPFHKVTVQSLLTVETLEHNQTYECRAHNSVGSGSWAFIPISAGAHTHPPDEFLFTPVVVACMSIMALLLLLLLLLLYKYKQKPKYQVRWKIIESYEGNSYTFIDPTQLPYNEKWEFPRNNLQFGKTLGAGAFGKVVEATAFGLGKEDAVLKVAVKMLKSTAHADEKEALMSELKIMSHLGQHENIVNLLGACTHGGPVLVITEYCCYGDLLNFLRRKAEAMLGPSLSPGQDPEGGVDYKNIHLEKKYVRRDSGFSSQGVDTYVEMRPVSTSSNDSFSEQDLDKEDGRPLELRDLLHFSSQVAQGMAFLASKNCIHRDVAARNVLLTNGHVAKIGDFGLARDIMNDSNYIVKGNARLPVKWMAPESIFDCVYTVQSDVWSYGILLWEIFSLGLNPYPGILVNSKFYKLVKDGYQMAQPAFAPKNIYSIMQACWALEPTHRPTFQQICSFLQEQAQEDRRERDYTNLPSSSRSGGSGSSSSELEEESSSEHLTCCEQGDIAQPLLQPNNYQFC
T4 sequence (P09619 600-962 limits assumed): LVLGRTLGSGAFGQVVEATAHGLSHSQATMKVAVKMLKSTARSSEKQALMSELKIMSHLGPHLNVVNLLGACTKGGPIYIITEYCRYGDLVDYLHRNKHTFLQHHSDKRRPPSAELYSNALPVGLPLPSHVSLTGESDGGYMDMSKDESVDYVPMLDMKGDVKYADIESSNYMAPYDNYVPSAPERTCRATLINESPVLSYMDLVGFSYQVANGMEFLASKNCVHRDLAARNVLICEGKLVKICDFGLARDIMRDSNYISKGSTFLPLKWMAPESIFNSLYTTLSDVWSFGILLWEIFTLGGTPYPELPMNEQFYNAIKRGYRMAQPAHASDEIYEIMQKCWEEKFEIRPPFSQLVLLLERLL
T3 sequence (P10721 589-937 limits assumed): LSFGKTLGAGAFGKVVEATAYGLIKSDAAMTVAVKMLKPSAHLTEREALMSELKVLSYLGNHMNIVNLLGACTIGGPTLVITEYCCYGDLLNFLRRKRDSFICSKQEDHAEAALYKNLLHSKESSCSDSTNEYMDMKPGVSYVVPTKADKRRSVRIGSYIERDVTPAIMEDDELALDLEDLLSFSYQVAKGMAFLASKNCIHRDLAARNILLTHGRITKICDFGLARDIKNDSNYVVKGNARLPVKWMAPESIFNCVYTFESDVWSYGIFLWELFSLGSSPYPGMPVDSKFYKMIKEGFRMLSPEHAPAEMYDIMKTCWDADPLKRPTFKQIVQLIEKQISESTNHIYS

SMILES | inhibition at 1 µM [1] | inhibition at 1 µM [2] | inhibition at 1 µM (kinase domain of cKIT) | inhibition at 1 µM (kinase domain of PDGFRβ) | inhibition at 1 µM [3]
Cc1nc(-c2cc(Oc3ccc4nc(N[C@@H]5CCCC[C@H]5O)sc4c3)ccn2)[nH]c1C [Example 232, (1R,2R)-2-(6-(2-(4,5-dimethyl-1H-imidazol-2-yl)pyridin-4-yloxy)benzo[d]thiazol-2-ylamino)cyclohexanol] | 100% | 99% | 34% | 64% | 100%
O[C@H]1Cc2ccccc2[C@H]1Nc1nc2ccc(Oc3ccnc4ccccc34)cc2s1 [Example 237, (1R,2S)-1-(6-(quinolin-4-yloxy)benzo[d]thiazol-2-ylamino)-2,3-dihydro-1H-inden-2-ol] | 100% | 94% | 24% | 13% | 100%
c1ccc2c(Oc3ccc4nc(N[C@@H]5C[C@H]6CC[C@@H]5C6)sc4c3)ccnc2c1 [Example 251, N-((1R,2R,4S)-bicyclo[2.2.1]heptan-2-yl)-6-(quinolin-4-yloxy)benzo[d]thiazol-2-amine] | 100% | 74% | 56% | 28% | 80%
O[C@@H]1CCCC[C@H]1Nc1nc2ccc(Oc3ccnc(-c4nc5c([nH]4)CCCC5)c3)cc2s1 [Example 258, (1R,2R)-2-(6-(2-(4,5,6,7-tetrahydro-1H-benzo[d]imidazol-2-yl)pyridin-4-yloxy)benzo[d]thiazol-2-ylamino)cyclohexanol] | 100% | 99% | 44% | 62% | 100%

The next lines start with results.

inhibition at 1 µM [1] | inhibition at 1 µM [2] | inhibition at 1 µM (kinase domain of cKIT) | inhibition at 1 µM (kinase domain of PDGFRβ) | SMILES | inhibition at 1 µM [3]
100% | 71% | 21% | 16% | OC[C@H](Nc1nc2ccc(Oc3ccnc4ccccc34)cc2s1)C1CCCCC1 [Example 240, (R)-2-cyclohexyl-2-(6-(quinolin-4-yloxy)benzo[d]thiazol-2-ylamino)ethanol] | 66%
100% | 65% | 25% | 23% | C[C@H](Nc1nc2ccc(Oc3ccnc4ccccc34)cc2s1)C1CCCCC1 [Example 241, (S)-N-(1-cyclohexylethyl)-6-(quinolin-4-yloxy)benzo[d]thiazol-2-amine] | 51%
100% | 85% | 25% | 35% | CC(C)[C@@H](CO)Nc1nc2ccc(Oc3ccnc4ccccc34)cc2s1 [Example 244, (S)-3-methyl-2-(6-(quinolin-4-yloxy)benzo[d]thiazol-2-ylamino)butan-1-ol] | 67%
100% | 81% | 16% | 21% | CC(C)C[C@H](CO)Nc1nc2ccc(Oc3ccnc4ccccc34)cc2s1 [Example 245, (R)-4-methyl-2-(6-(quinolin-4-yloxy)benzo[d]thiazol-2-ylamino)pentan-1-ol] | 53%
100% | 39% | 33% | 41% | CC(C)(C)[C@@H](CO)Nc1nc2ccc(Oc3ccnc4ccccc34)cc2s1 [Example 248, (S)-3,3-dimethyl-2-(6-(quinolin-4-yloxy)benzo[d]thiazol-2-ylamino)butan-1-ol] | 51%
100% | 87% | 71% | 3% | c1ccc2c(Oc3ccc4nc(NC5CCCCC5)sc4c3)ccnc2c1 [Example 256, N-cyclohexyl-6-(quinolin-4-yloxy)benzo[d]thiazol-2-amine] | 87%
